Experimental data as given in patent publication US8822455B2, “Fused aminodihydrothiazine derivatives” (Eisai R&D Management Co., Ltd., priority 2011, dated 2014).

test system: Aβ42; test: In vitro cellular assay (Aβ42): quantification of Aβ peptide in culture of neurons from rat fetus brain (ELISA); format: cell-based; details: Primary cortical neuron, 72 h, rat primary cortical neurons (embryonic day 18 Wistar), 3 days after addition of compound, read-out: Cell IC50
Description: In vitro Cellular Assay (Aβ42):
Quantification of AβPeptide in Culture of Neurons from Rat Fetus Brain
(1) Rat Primary Neuronal Culture
Primary neuronal cultures were prepared from the cerebral cortex of embryonic day 18 Wistar rats (Charles River, UK). Specifically, the embryos were aseptically removed from pregnant rats under ether anesthesia. The brain was isolated from the embryo and immersed in HBSS (Sigma Aldrich #H9269) containing 10 mM HEPES (Gibco #15630-056). The cerebral cortex was collected from the isolated brain under a stereoscopic microscope. The cerebral cortex fragments collected were enzymatically treated in an enzyme solution containing 0.05% trypsin-EDTA solution (GIBCO, #25300) at 37° C. for 20 minutes to disperse the cells. The cells were then washed twice and then gently resuspended in Neurobasal medium (Gibco #21103) supplemented with 2% B27 supplement (GIBCO #17504-044), 0.5 mM L-glutamine (GIBCO #25030), 1×N2 (GIBCO #17502-048), 100 ug/ml Pen/Strep (GIBCO 15140-122) and 5% heat inactivated FCS (PAA #A15-701). The cell dispersion was filtered through a 40-μm nylon mesh (BD Falcon #352340) to remove the remaining cell mass, and thus a neuronal cell suspension was obtained. The neuronal cell suspension was diluted with the medium above and then plated in a volume of 100 μL/well at an initial cell density of 3.25×10^5 cells/ml in poly-D-lysine coated 96-well culture plate (Greiner #655940). The plated cells were cultured in the culture plate at 37° C. in 5% CO2-95% air for 24 hrs. The total amount of the medium was replaced with ‘assay Neurobasal medium’ (as above excluding heat inactivated FCS), and then the cells were cultured for a further five days.
The drug was added to the culture plate on Day 6 of culture as follows. 8 point compound serial dilutions were generated in DMSO at a concentration of ×1000 that of the final assay concentration (FAC). Compound solutions were then prepared by adding 999 ul of ‘Assay Neurobasal media’ (as described in above section) to 1 ul of DMSO compound stock. The total amount of the medium was removed from each of the cell plate wells, and 200 μL/well of compound solution was added. The final DMSO concentration was 0.1%.
The cells were cultured for either 1 or 3 days after addition of the compound for ABx-40 and ABx-42 assays respectively. 150 μl of sample medium was collected and used as the ELISA sample.
Human/Rat β Amyloid (42) ELISA Kit Wako (#290-62601) and Human/Rat β Amyloid (40) ELISA Kit Wako (#294-62501) from Wako Pure Chemical Industries, Ltd. were used for Aβ ELISA Aβ ELISA was carried out according to the protocols recommended by the manufacturers, described in the documents accompanying the kits. The results were shown as percentage of the control groups and IC50 values for each compound were determined using four parameter logistic fit model using the XLFIT5 software package (IDBS).

Question: C[C@H]1OC[C@]2(c3cc(-c4cncnc4)c(F)cc3F)N=C(N)SC[C@H]12 (relative stereo) [Example 31, (4aS*,5R*,7aS*)-7a-(2,4-Difluoro-5-(pyrimidin-5-yl)phenyl)-5-methyl-4a,5,7,7a-tetrahydro-4H-furo[3,4-d][1,3]thiazin-2-amine] was tested. Which IC50 did it give?
Answer: The IC50 was 20 nM.

Question: Which IC50 does the source give for C[C@H]1OC[C@]2(c3cc(-c4cncnc4)ccc3F)N=C(N)SC[C@H]12 [Example 1, (4aS,5R,7aS)-7a-(2-Fluoro-5-(pyrimidin-5-yl)phenyl)-5-methyl-4a,5,7,7a-tetrahydro-4H-furo[3,4-d][1,3]thiazin-2-amine] here?
Answer: The IC50 was 65 nM.

Question: How did the IC50 turn out when C[C@H]1OC[C@]2(c3cc(-c4ncc[nH]4)ccc3F)N=C(N)SC[C@H]12 [Example 2, (4aS,5R,7aS)-7a-(2-Fluoro-5-(1H-imidazo-2-yl)phenyl)-5-methyl-4a,5,7,7a-tetrahydro-4H-furo[3,4-d][1,3]thiazin-2-amine] was run?
Answer: Its IC50 is 749 nM.

Question: How did the IC50 turn out when C[C@H]1OC[C@]2(c3cc(-c4cnc(-c5cnccn5)[nH]4)ccc3F)N=C(N)SC[C@H]12 [Example 3, (4aS,5R,7aS)-7a-(2-fluoro-5-(2-(pyrazin-2-yl)-1H-imidazol-5-yl)phenyl)-5-methyl-4a,5,7,7a-tetrahydro-4H-furo[3,4-d][1,3]thiazin-2-amine] was run?
Answer: The IC50 was 69 nM.

Question: How did the IC50 turn out when C[C@H]1OC[C@]2(c3cc(-c4cccnc4)ccc3F)N=C(N)SC[C@H]12 [Example 4, (4aS,5R,7aS)-7a-(2-Fluoro-5-(pyridin-3-yl)phenyl)-5-methyl-4a,5,7,7a-tetrahydro-4H-furo[3,4-d][1,3]thiazin-2-amine] was run?
Answer: Its IC50 is 106 nM.

Question: Which IC50 does the source give for C[C@H]1OC[C@]2(c3cc(-c4ccccc4)ccc3F)N=C(N)SC[C@H]12 [Example 5, (4aS,5R,7aS)-7a-(4-Fluoro-[1,1′-biphenyl]-3-yl)-5-methyl-4a,5,7,7a-tetrahydro-4H-furo[3,4-d][1,3]thiazin-2-amine] here?
Answer: Its IC50 is 450 nM.

Question: With C[C@H]1OC[C@]2(c3cc(-c4ccccc4F)ccc3F)N=C(N)SC[C@H]12 [Example 6, (4aS,5R,7aS)-7a-(2′,4-difluoro-[1,1′-biphenyl]-3-yl)-5-methyl-4a,5,7,7a-tetrahydro-4H-furo[3,4-d][1,3]thiazin-2-amine] as the molecule, how does the IC50 read?
Answer: The IC50 was 244 nM.

Question: C[C@H]1OC[C@]2(c3cc(-c4cccnc4F)ccc3F)N=C(N)SC[C@H]12 [Example 7, (4aS,5R,7aS)-7a-(2-Fluoro-5-(2-fluoropyridin-3-yl)phenyl)-5-methyl-4a,5,7,7a-tetrahydro-4H-furo[3,4-d][1,3]thiazin-2-amine] was tested. Which IC50 did it give?
Answer: Its IC50 is 62 nM.

Question: How did the IC50 turn out when COc1cncc(-c2ccc(F)c([C@]34CO[C@H](C)[C@H]3CSC(N)=N4)c2)c1 [Example 8, (4aS,5R,7aS)-7a-(2-fluoro-5-(5-methoxypyridin-3-yl)phenyl)-5-methyl-4a,5,7,7a-tetrahydro-4H-furo[3,4-d][1,3]thiazin-2-amine] was run?
Answer: The IC50 was 23 nM.

Question: How did the IC50 turn out when C[C@H]1OC[C@]2(c3cc(-c4cncc(F)c4)ccc3F)N=C(N)SC[C@H]12 [Example 9, (4aS,5R,7aS)-7a-(2-Fluoro-5-(5-fluoropyridin-3-yl)phenyl)-5-methyl-4a,5,7,7a-tetrahydro-4H-furo[3,4-d][1,3]thiazin-2-amine] was run?
Answer: The IC50 was 60 nM.

Question: Which IC50 does the source give for C[C@H]1OC[C@]2(c3cc(-c4ccc(F)nc4)ccc3F)N=C(N)SC[C@H]12 [Example 10, (4aS,5R,7aS)-7a-(2-Fluoro-5-(6-fluoropyridin-3-yl)phenyl)-5-methyl-4a,5,7,7a-tetrahydro-4H-furo[3,4-d][1,3]thiazin-2-amine] here?
Answer: Its IC50 is 94 nM.

Question: With COc1ccc(-c2ccc(F)c([C@]34CO[C@H](C)[C@H]3CSC(N)=N4)c2)cn1 [Example 11, (4aS,5R,7aS)-7a-(2-Fluoro-5-(6-methoxypyridin-3-yl)phenyl)-5-methyl-4a,5,7,7a-tetrahydro-4H-furo[3,4-d][1,3]thiazin-2-amine] as the molecule, how does the IC50 read?
Answer: Its IC50 is 839 nM.

Question: How did the IC50 turn out when C[C@H]1OC[C@]2(c3cc(-c4cc(F)ccc4F)ccc3F)N=C(N)SC[C@H]12 [Example 12, (4aS,5R,7aS)-5-Methyl-7a-(2′,4,5′-trifluoro-[1,1′-biphenyl]-3-yl)-4a,5,7,7a-tetrahydro-4H-furo[3,4-d][1,3]thiazin-2-amine] was run?
Answer: The IC50 was 114 nM.

Question: For C[C@H]1OC[C@]2(c3cc(-c4cncc(C#N)c4)ccc3F)N=C(N)SC[C@H]12 [Example 13, 5-(3-((4aS,5R,7aS)-2-Amino-5-methyl-4a,5,7,7a-tetrahydro-4H-furo[3,4-d][1,3]thiazin-7a-yl)-4-fluorophenyl)nicotinonitrile], which IC50 is on record?
Answer: The IC50 was 62 nM.

Question: For C[C@H]1OC[C@]2(c3cc(-c4cncc(C(F)(F)F)c4)ccc3F)N=C(N)SC[C@H]12 [Example 14, (4aS,5R,7aS)-7a-(2-Fluoro-5-(5-(trifluoromethyl)pyridine-3-yl)phenyl)-5-methyl-4a,5,7,7a-tetrahydro-4H-furo[3,4-d][1,3]thiazin-2-amine], which IC50 is on record?
Answer: Its IC50 is 136 nM.

Question: For Cc1cncc(-c2ccc(F)c([C@]34CO[C@H](C)[C@H]3CSC(N)=N4)c2)c1 [Example 15, (4aS,5R,7aS)-7a-(2-Fluoro-5-(5-methylpyridin-3-yl)phenyl)-5-methyl-4a,5,7,7a-tetrahydro-4H-furo[3,4-d][1,3]thiazin-2-amine], which IC50 is on record?
Answer: Its IC50 is 101 nM.

Question: For Cc1cnc(F)c(-c2ccc(F)c([C@]34CO[C@H](C)[C@H]3CSC(N)=N4)c2)c1 [Example 16, (4aS,5R,7aS)-7a-(2-fluoro-5-(2-fluoro-5-methylpyridin-3-yl)phenyl)-5-methyl-4a,5,7,7a-tetrahydro-4H-furo[3,4-d][1,3]thiazin-2-amine], which IC50 is on record?
Answer: Its IC50 is 58 nM.

Question: How did the IC50 turn out when C[C@H]1OC[C@]2(c3cc(-c4ccn[nH]4)ccc3F)N=C(N)SC[C@H]12 [Example 17, (4aS,5R,7aS)-7a-(2-Fluoro-5-(1H-pyrazol-5-yl)phenyl)-5-methyl-4a,5,7,7a-tetrahydro-4H-furo[3,4-d][1,3]-thiazin-2-amine] was run?
Answer: The IC50 was 977 nM.

Question: Which IC50 does the source give for Cc1ncccc1-c1ccc(F)c([C@]23CO[C@H](C)[C@H]2CSC(N)=N3)c1 [Example 18, (4aS,5R,7aS)-7a-(2-fluoro-5-(2-methylpyridin-3-yl)phenyl)-5-methyl-4a,5,7,7a-tetrahydro-4H-furo[3,4-d][1,3]thiazin-2-amine] here?
Answer: Its IC50 is 217 nM.

Question: With CC#Cc1cncc(-c2ccc(F)c([C@]34CO[C@H](C)[C@H]3CSC(N)=N4)c2)c1 [Example 19, (4aS,5R,7aS)-7a-(2-fluoro-5-(5-(prop-1-yn-1-yl)pyridin-3-yl)phenyl)-5-methyl-4a 5,7,7a-tetrahydro-4H-furo[3,4-d][1,3]thiazin-2-amine] as the molecule, how does the IC50 read?
Answer: The IC50 was 17 nM.

Question: How did the IC50 turn out when C[C@H]1OC[C@]2(c3cc(-c4ccnn4C)ccc3F)N=C(N)SC[C@H]12 [Example 20, (4aS,5R,7aS)-7a-(2-fluoro-5-(1-methyl-1H-pyrazol-5-yl)phenyl)-5-methyl-4a,5,7,7a-tetrahydro-4H-furo[3,4-d]thiazin-2-amine] was run?
Answer: The IC50 was > 1000 nM.

Question: With C[C@H]1OC[C@]2(c3cc(-c4cncc(OC5CC5)c4)ccc3F)N=C(N)SC[C@H]12 [Example 21, (4aS,5R,7aS)-7a-(5-(5-cyclopropoxypyridin-3-yl)-2-fluorophenyl)-5-methyl-4a,5,7,7a-tetrahydro-4H-furo[3,4-d][1,3]thiazin-2-amine] as the molecule, how does the IC50 read?
Answer: Its IC50 is 127 nM.

Question: C[C@H]1OC[C@]2(c3cc(-c4cnccn4)ccc3F)N=C(N)SC[C@H]12 [Example 22, (4aS,5R,7aS)-7a-(2-fluoro-5-(pyrazin-2-yl)phenyl)-5-methyl-4a,5,7,7a-tetrahydro-4H-furo[3,4-d][1,3]thiazin-2-amine] was tested. Which IC50 did it give?
Answer: Its IC50 is 55 nM.

Question: For C[C@H]1OC[C@]2(c3cc(-c4cccnn4)ccc3F)N=C(N)SC[C@H]12 [Example 23, (4aS,5R,7aS)-7a-(2-fluoro-5-(pyridazin-3-yl)phenyl)-5-methyl-4a,5,7,7a-tetrahydro-4H-furo[3,4-d][1,3]thiazin-2-amine], which IC50 is on record?
Answer: Its IC50 is 572 nM.

Question: With COc1cccc(-c2ccc(F)c([C@]34CO[C@H](C)[C@H]3CSC(N)=N4)c2)n1 [Example 24, (4aS,5R,7aS)-7a-(2-fluoro-5-(6-methoxypyridin-2-yl)phenyl)-5-methyl-4a,5,7,7a-tetrahydro-4H-furo[3,4-d][1,3]thiazin-2-amine] as the molecule, how does the IC50 read?
Answer: The IC50 was > 1000 nM.
